Assay results reported in patent publication US20220162215A1, “COMPOSITIONS AND METHODS OF USING THE SAME FOR TREATMENT OF NEURODEGENERATIVE AND MITOCHONDRIAL DISEASE” (MITOKININ, INC., priority 2019, published 2022).
Like-named read-outs stand apart in the source and are kept apart here.

Key:
[1] = Visual inspection of crystallization; type: physicochemical; parameters: key: 1: yes crystals; 0: no crystals; conditions: Tables 5A-5D
Experimental: (§1) Briefly, the Hela MKYP (Mito-Keima/YFP-Parkin) cells were seeded at 10K cells/well. EP/MTK compounds were added at seeding (cells were still in suspension). The cells were incubated with the EP/MTK compounds for 16 hours, then 1 μM FCCP/oligomycin was added for 6 hours. Prior to harvesting, cells were scored by eye under 20× magnification for the presence or absence of crystalline or aggregated compound, or round cells.

[2] = target: T1, PINK1 (Homo sapiens, UniProt Q9BXM7); test: pS65 Ubiquitin ELISA assay (HeLa-MKYP WT or PINK1 KO); type: cell-based; conditions: PINK1wt vs PINK1ko cells, FIG. 17A
T1 construct: for each cell type tested (HeLa-MKYP WT or PINK1^KO); endogenous in cells; host or cells: HeLa-MKYP (WT) / HeLa cells
Experimental: HeLa-MKYP cells were plated at 10,000 cells/well in 96-well plates along with compounds at various concentrations. Following 16 hours of incubation, cells were treated with 1 μM FCCP/oligomycin (F/O) along with compounds at various doses for 2-3 hours. Appropriate controls were included on each plate to obtain a maximum signal from treatment with 10 μM F/O or, and a minimum signal from cells treated with no F/O with DMSO for each cell type tested (HeLa-MKYP WT or PINK1^KO). At the desired timepoint, media was removed and cells were frozen prior to lysis. Cells lysates were denatured by boiling, prior to analysis by a custom ELISA assay using commercially available antibodies (using anti-phospho-ubiquitin as a capturing antibody, and anti-total ubiquitin as a detection antibody). Purified pS65 ubiquitin was used to generate a standard curve and determine timing for ELISA reaction development.

[3] = In vivo summary, pharmacokinetics, rat
Experimental: Referring to Tables 8A-C below, an in vivo summary of EP-0035985 IV at 1 mg/kg (8A), PO 10 mg/kg (8B), and a tissue distribution, mouse (8C) is shown below.

[4] = target: T1, PINK1; test: PINK1 phosphorylation in HeLa cells (PhosTag gel electrophoresis); type: cell-based
[5] = system: GDF15; test: Cisplatin mouse model of mitochondrial dysfunction (GDF15 qPCR, kidney); type: in vivo, mice; conditions: oral dosing; i.p. cisplatin; FIG. 34
Excerpt: Cisplatin is a chemotherapeutic agent reported in the literature to induce mitochondrial damage (see: Yang, Z., et al. “Cisplatin Preferentially Binds Mitochondrial DNA and Voltage-Dependent Anion Channel Protein in the Mitochondrial Membrane of Head and Neck Squamous Cell Carcinoma: Possible Role in Apoptosis.” Clinical Cancer Research 12, no. 19 (2006), 5817-5825). Growth and Differentiation Factor 15 (GDF15) is an established biomarker of mitochondrial disease and certain neurodegenerative diseases (see: Montero, R, et al. “GDF-15 Is Elevated in Children with Mitochondrial Diseases and Is Induced by Mitochondrial Dysfunction.” PLOS ONE 11, no. 2 (2016); Nohara, S, et al. “GDF-15, a mitochondrial disease biomarker, is associated with the severity of multiple sclerosis”, Journal of Neurological Sciences, Vol 405 (2019)). Briefly, mice approximately 10 weeks in age were challenged with a single intraperitoneal dose of cisplatin (10 mg/kg), then treated daily via oral gavage with either compound 35985 at various doses or vehicle control. On day 7, the animals were sacrificed. Kidneys were removed and homogenized. Following published methods, qPCR was performed on the kidney samples to determine expression levels of GDF15.

[6] = system: Hela MKYP (Mito-Keima/YFP-Parkin) cells; test: Inspection of round cells; conditions: Tables 6A-6D
Experimental: as §1

T1 sequence (Q9BXM7 78-581): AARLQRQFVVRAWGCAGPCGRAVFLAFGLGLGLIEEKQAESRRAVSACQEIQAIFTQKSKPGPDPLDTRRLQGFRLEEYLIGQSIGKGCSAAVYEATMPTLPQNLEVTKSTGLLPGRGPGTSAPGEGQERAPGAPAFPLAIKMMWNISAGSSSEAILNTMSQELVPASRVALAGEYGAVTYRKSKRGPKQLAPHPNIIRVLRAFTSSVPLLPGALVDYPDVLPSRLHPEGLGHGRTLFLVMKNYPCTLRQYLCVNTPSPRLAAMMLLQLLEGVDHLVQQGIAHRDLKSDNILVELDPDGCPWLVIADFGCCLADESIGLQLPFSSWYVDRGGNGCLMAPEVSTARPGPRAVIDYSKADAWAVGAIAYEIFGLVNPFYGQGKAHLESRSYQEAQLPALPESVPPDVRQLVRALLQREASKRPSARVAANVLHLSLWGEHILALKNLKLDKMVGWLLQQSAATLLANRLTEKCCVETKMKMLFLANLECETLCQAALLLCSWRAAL

Structure (SMILES): FC(F)(F)c1cc2c(NC3CCCc4ccccc43)ncnc2[nH]1 (stereo not drawn) [Compound 15]
- Visual inspection of crystallization ([1]; 1.6 μM): 0
- Visual inspection of crystallization ([1]; 3.1 μM): 0
- Visual inspection of crystallization ([1]; 6.3 μM): 0
- Visual inspection of crystallization ([1]; 12.5 μM): 0
- Visual inspection of crystallization ([1]; 25.0 μM): 0
- Visual inspection of crystallization ([1]; 50.0 μM): 0
- pS65 Ub (PINK1 substrate phosphorylation) [2]: significant increase in pS65 Ub in PINK1^wt cells but not in PINK1^ko cell lines
- AUCExtr ([3]; IV at 1 mg/kg, Table 8A): 2.5%
- AUClast ([3]; IV at 1 mg/kg, Table 8A): 837.5 ng·h/mL
- C0 ([3]; IV at 1 mg/kg, Table 8A): 1667.7 ng/mL
- CL ([3]; IV at 1 mg/kg, Table 8A): 19.5 mL/min/kg
- MRTlnf ([3]; IV at 1 mg/kg, Table 8A): 2.0 h
- T1/2 ([3]; IV at 1 mg/kg, Table 8A): 3.6 h
- Vss ([3]; IV at 1 mg/kg, Table 8A): 2.4 L/kg
- Vz ([3]; IV at 1 mg/kg, Table 8A): 6.0 L/kg
- AUClast ([3]; PO 10 mg/kg, Table 8B): 692.4 ng·h/mL
- MRTlnf ([3]; PO 10 mg/kg, Table 8B): 88.1 h
- Vss ([3]; PO 10 mg/kg, Table 8B): 7.9 L/kg
- AUC ([3]; in vivo, IV at 1 mg/kg, Table 8A): 838 ng·h/mL
- AUC ([3]; in vivo, PO 10 mg/kg, Table 8B): 7350 ng·h/mL
- C0 ([3]; in vivo, PO 10 mg/kg, Table 8B, read-out: C0): 2.6 ng/mL
- pS65 Ubiquitin ([4]; 0.5, 1 μM FCCP, FIG. 33C): significant increase in pS65 Ubiquitin at 0.5, 1 μM FCCP
- levels of PINK1phospho ([4]; HeLa cells, 2.8 μM compound and 0.5, 1.0, or 2.0 μM FCCP, FIG. 33A): significantly increases the levels of PINK1phospho
- expression of mitochondrial disease marker GDF15 [5]: reduces expression of mitochondrial disease marker GDF15
- Inspection of round cells ([6]; 1.6 μM): 0
- Inspection of round cells ([6]; 3.1 μM): 0
- Inspection of round cells ([6]; 6.3 μM): 0
- Inspection of round cells ([6]; 12.5 μM): 0
- Inspection of round cells ([6]; 25.0 μM): 0
- Inspection of round cells ([6]; 50.0 μM): 0
